Experimental data reported in patent publication US9512139B2, “Conformationally constrained, fully synthetic macrocyclic compounds” (POLYPHOR AG, priority 2009, dated 2016).

Tests used:
[1] = Metabolic stability assay, CD-1 mouse microsomes; assay type: in vitro ADME; conditions: CD-1, mouse, microsomes; for Metabolic Stability T½ [min] mouse / Metabolic Stability 60 min mouse [% remain.]: both, 10 µM; for Metabolic Stability 60 min mouse [% remain.]: 1 h
[2] = Metabolic stability assay, human microsomes; assay type: in vitro ADME; conditions: human, microsomes; for Metabolic Stability T½ [min] hum / Metabolic Stability 60 min hum [% remain.]: both, 10 µM; for Metabolic Stability 60 min hum [% remain.]: 1 h; for half-life at 10 µM: both sexes
[3] = Plasma stability assay, rat plasma (values in parentheses); assay type: in vitro ADME; conditions: value in parentheses
in vitro [4] = assay type: in vitro ADME, human; conditions: human, plasma; for Plasma Stability 240 min hum [% remain.]: 4 h; for Plasma Stability 240 min hum [% remain.] / Plasma Stability T½ [min] hum: 10 µM
[5] = Metabolic stability assay, rat microsomes (values in parentheses); assay type: in vitro ADME; conditions: value in parentheses
Motilin Receptor = biological target: T1, Motilin Receptor (Homo sapiens, UniProt O43193); experiment: Ca2+ assay (FLIPR) for the GPCR motilin receptor, agonist and antagonist mode; assay type: cell-based; conditions: antagonist mode
T1 construct: host or cells: Ca2+ optimized hematopoietic cell lines (rat)
T1 sequence (O43193 whole entry, species assumed): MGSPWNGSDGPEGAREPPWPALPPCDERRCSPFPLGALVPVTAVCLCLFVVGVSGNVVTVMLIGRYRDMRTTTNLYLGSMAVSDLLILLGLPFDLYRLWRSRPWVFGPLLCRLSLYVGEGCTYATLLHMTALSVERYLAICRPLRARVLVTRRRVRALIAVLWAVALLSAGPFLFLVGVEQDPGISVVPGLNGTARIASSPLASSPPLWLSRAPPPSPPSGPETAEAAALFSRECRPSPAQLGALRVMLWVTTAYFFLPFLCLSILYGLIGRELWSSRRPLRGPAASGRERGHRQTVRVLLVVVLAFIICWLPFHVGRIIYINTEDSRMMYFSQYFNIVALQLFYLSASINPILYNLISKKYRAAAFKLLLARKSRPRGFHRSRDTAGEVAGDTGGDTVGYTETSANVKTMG
Experimental: Ca^2+ Assays for the GPCRs Motilin Receptor, Prostaglandin F (FP) Receptor, 5-hydroxytryptamine 2B (5-HT2B) Receptor, and Purinoreceptor P2Y1
Assays were performed using on a FLIPR^TETRA fluorometric imaging plate reader (Molecular Devices) with ScreenWorks Version 2 (Molecular Devices) as device operating and data analysis software.
Dose dependent agonist and antagonist activities were determined. Percentage activation and percentage inhibition values were determined.
Percentage activation was determined upon initial addition of the sample compounds followed by 10 minutes incubation at 25° C. Following compound incubation, reference agonists were added at EC80 to determine percentage inhibition.
Reference agonists were purchased from reputable commercial vendors and prepared according to each ligand's specifications. All handling of ligands were done to ensure proper control throughout the experiments.
Example compounds were weighed on a Microbalance (Mettler MX5) and dissolved in 100% DMSO to a final concentration of 2.5 mM and subsequently diluted into the assay buffer.
The Assay buffer was a supplemented HBSS (Hank's Balanced Salt Solution). HBSS was supplemented with 20 mM HEPES (4-(2-hydroxyethyl)-piperazin-1-ethansulfonic acid) and 2.5 mM Probenecid (Sigma P8761).
GPCR assays were performed using Ca^2+ optimized hematopoietic cell lines (rat) with cultures never exceeding 90% confluency. […] After seeding, the assay plates were incubated for forty-five (45) minutes at room temperature. After room temperature incubation, the assay plates were incubated at 37° C. 5% CO2 for 24 hours prior to assaying.
All GPCR assays were performed using Fluo-8 Ca^2+ dye. Ca^2+ dye was prepared at 1× dye concentration in GPCR assay buffer. After 24 hours of incubation, cells were washed with GPCR assay buffer, and then Ca^2+-dye (100 μL/well) was added.
The plates were incubated for 90 minutes at 30° C. 5% CO2 prior to FLIPR assay.
Compound plates were prepared to add 50 μL/well during the agonist assay mode. During the FLIPR assay, 50 μL/well from the compound plate was diluted 3-fold into the existing 100 μL/well from the dye loading step. Therefore all compounds were prepared as 3× the final concentration desired in the assay.
After completion of the first single addition assay run, assay plate was removed from the FLIPR Tetra and placed at 25° C. for seven (7) minutes before antagonist assay.
Using the EC80 values determined during the agonist assay, all pre-incubated sample compound and reference antagonist (if applicable) wells were stimulated at the EC80 of the reference agonist. As reference ligands for the first three assays their obvious natural ligands motilin, prostaglandin F2α, and serotonin (5-HT, 5-Hydroxytryptamine) were used; and for the P2Y1 assay 2MeSATP (2-methyl-thio-adeno-sine 5′-triphosphate, i.e. (2R,3S,4R)-5-(6-amino-2-methylsulfanyl-purin-9-yl)-3,4-dihydroxy-tetrahydrofuran-2-yl]methyl (hydroxy-phosphonooxy-phosphoryl)hydrogen phosphate) was applied.
After the addition of the reference agonist fluorescence was monitored for 180 sec using FLIPR Tetra.
Data Analysis and Results:
From the FLIPR data, with negative control correction enabled, the maximum statistic for each well was exported and percentage activation relative to Emax control was calculated.

in vitro [6] = assay type: in vitro ADME, mouse; conditions: both, CD-1, mouse, plasma, 10 µM; for Plasma Stability 240 min mouse [% remain.]: 4 h
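Throughout, for Plasma Stability 240 min mouse [% remain.]: sodium citrate stabilized mouse plasma, parent compound quantified by HPLC/MS/MS relative to its peak area at time zero, run in triplicate.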
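Throughout, for Plasma Stability T½ [min] mouse: sodium citrate stabilized mouse plasma, parent compound quantified by HPLC/MS/MS relative to its peak area at time zero, run in triplicate.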

| Compound | Metabolic Stability T½ [min] mouse [1] | Metabolic Stability 60 min mouse [% remain.] [1] | Metabolic Stability T½ [min] hum [2] | Metabolic Stability 60 min hum [% remain.] [2] | Plasma Stability 240 min (rat) [% remain.] [3] | Plasma Stability T½ [min] (rat) [3] | half-life at 10 µM (in vitro [4]) | Plasma Stability 240 min hum [% remain.] (in vitro [4]) | Metabolic Stability 60 min (rat) [% remain.] [5] | Metabolic Stability T½ [min] (rat) [5] | Plasma Stability T½ [min] hum (in vitro [4]) | half-life at 10 µM ([3]; read-out: Plasma Stability T½ [min] (rat)) | half-life at 10 µM ([1]; both sexes) | half-life at 10 µM [2] | half-life at 10 µM ([5]; read-out: Metabolic Stability T½ [min] (rat)) | IC50 (Motilin Receptor) | inhibition at 10 µM (Motilin Receptor) | Plasma Stability T½ [min] mouse (in vitro [6]) | Plasma Stability 240 min mouse [% remain.] (in vitro [6]) |
| --- | --- | --- | --- | --- | --- | --- | --- | --- | --- | --- | --- | --- | --- | --- | --- | --- | --- | --- | --- |
| COCCNC(=O)[C@@H]1COCC(=O)N2C[C@@H](N3CCN(Cc4ccccc4)CC3)C[C@H]2COc2cccc(c2)C(=O)N1C [Ex. 378, (4S,6S,13S)-6-(4-benzylpiperazino)-N-(2-methoxyethyl)-14-methyl-9,15-dioxo-2,11-dioxa-8,14-diazatricyclo[14.3.1.0^4,8]icosa-1(20),16,18-triene-13-carboxamide] | > 60 min | 87 % remain. | > 60 min | 65 % remain. | (100) % remain. | (240) min | 4 h | 48 % remain. | 72 % remain. | 60 (60) min |  |  |  |  |  |  |  |  |  |
| COCCNC(=O)[C@@H]1COCC(=O)N2C[C@@H](N)C[C@H]2COc2cccc(c2)C(=O)N1C [Ex. 369, (4S,6S,13S)-6-amino-N-(2-methoxyethyl)-14-methyl-9,15-dioxo-2,11-dioxa-8,14-diazatricyclo[14.3.1.0^4,8]icosa-1(20),16,18-triene-13-carboxamide] | > 60 min | 80 % remain. | > 60 min | 100 % remain. | (79) % remain. | (240) min |  | 85 % remain. | 100 % remain. | 60 (60) min | > 240 min |  |  |  |  |  |  |  |  |
| CN1CCN([C@H]2CCCN(C)C(=O)c3cccc(c3)OC[C@@H]3C[C@H](O)CN3C2=O)CC1 [Ex. 581, (4S,6S,10S)-6-hydroxy-14-methyl-10-(4-methylpiperazino)-2-oxa-8,14-diazatricyclo[14.3.1.0^4,8]icosa-1(20),16,18-triene-9,15-dione] | > 60 min | 100 % remain. | > 60 min | 98 % remain. | (77) % remain. |  |  | 70 % remain. |  |  | > 240 min | 210 min |  |  |  |  |  |  |  |
| CN(C)CCNC(=O)[C@@H]1COCC(=O)N2C[C@@H](NC(=O)Cc3ccc4ccccc4c3)C[C@H]2COc2cccc(c2)C(=O)N1C [Ex. 374, (4S,6S,13S)-N-[2-(dimethylamino)ethyl]-14-methyl-6-{[2-(2-naphthyl)acetyl]amino}-9,15-dioxo-2,11-dioxa-8,14-diazatricyclo[14.3.1.0^4,8]icosa-1(20),16,18-triene-13-carboxamide] | > 60 min | 94 % remain. | > 60 min | 61 % remain. | (82) % remain. | (240) min |  | 57 % remain. | 90 % remain. | 60 (60) min | > 240 min |  |  |  |  |  |  |  |  |
| COCCNC(=O)[C@@H]1COCC(=O)N2C[C@@H](NCC(C)C)C[C@H]2COc2cccc(c2)C(=O)N1C [Ex. 376, (4S,6S,13S)-6-(isobutylamino)-N-(2-methoxyethyl)-14-methyl-9,15-dioxo-2,11-dioxa-8,14-diazatricyclo[14.3.1.0^4,8]icosa-1(20),16,18-triene-13-carboxamide] | > 60 min | 91 % remain. | > 60 min | 79 % remain. | (89) % remain. | (240) min |  | 90 % remain. | 78 % remain. | 60 (60) min | > 240 min |  |  |  |  |  |  |  |  |
| CN1CCC[C@H](N2CCNCC2)C(=O)N2C[C@@H](O)C[C@H]2COc2cccc(c2)C1=O [Ex. 580, (4S,6S,10S)-6-hydroxy-14-methyl-10-piperazino-2-oxa-8,14-diazatricyclo[14.3.1.0^4,8]icosa-1(20),16,18-triene-9,15-dione] |  |  | > 60 min | 100 % remain. | (79) % remain. | (240) min |  | 70 % remain. |  |  | > 240 min |  |  |  |  |  |  |  |  |
| CC(C)CN[C@H]1C[C@H]2COc3cccc(c3)C(=O)N(C)[C@H](C(=O)NCc3ccc4ccccc4c3)COCC(=O)N2C1 [Ex. 373, (4S,6S,13S)-6-(isobutylamino)-14-methyl-N-(2-naphthylmethyl)-9,15-dioxo-2,11-dioxa-8,14-diazatricyclo[14.3.1.0^4,8]icosa-1(20),16,18-triene-13-carboxamide] |  | 39 % remain. |  | 12 % remain. | (100) % remain. | (240) min |  | 55 % remain. | 0 % remain. |  | > 240 min |  | 0.6 h | 0.2 h | 7 min |  |  |  |  |
| CN1CC(=O)N2C[C@@H](NC(=O)Cc3cccc4ccccc34)C[C@H]2COc2ccc(F)cc2C(=O)N(C)[C@H](C(=O)NCCNC(=N)N)CCC1=O [Ex. 484, (2S,11S,19aS)-N-(2-{[amino(imino)methyl]amino}ethyl)-15-fluoro-7,12-dimethyl-2-{[2-(1-naphthyl)acetyl]amino}-5,8,13-trioxo-2,3,6,7,8,9,10,11,12,13,19,19a-dodecahydro-1H,5H-pyrrolo[2,1-c] [1,4,7,12] benzoxatriazacyclopentadecine-11-carboxamide] | > 60 min | 100 % remain. |  | 11 % remain. |  |  |  | 100 % remain. |  |  | > 240 min |  |  | 0.35 h |  | 0.2 µM | 99% | > 240 min | 90 % remain. |
| CN(C)CCNC(=O)[C@@H]1CCC(=O)N(C)CC(=O)N2C[C@@H](NC(=O)Nc3cccc4ccccc34)C[C@H]2COc2ccc(F)cc2C(=O)N1C [Ex. 482, (2S,11S,19aS)-N-[2-(dimethylamino)ethyl]-15-fluoro-7,12-dimethyl-2-{[(1-naphthylamino)carbonyl]amino}-5,8,13-trioxo-2,3,6,7,8,9,10, 11,12,13,19,19a-dodecahydro-1H,5H-pyrrolo [2,1-c] [1,4,7,12]benzoxatriazacyclopentadecine-11-carboxamide] | > 60 min | 84 % remain. |  | 11 % remain. |  |  |  | 100 % remain. |  |  | > 240 min |  |  | 0.367 h |  | 1.1 µM | 62% | > 240 min | 100 % remain. |
